Entries after “also recorded” stand apart in the source; their conditions may differ. Non-standard residues stand in square brackets, D forms with d. Residues, ends and D or L forms follow the SMILES beside them.
Legend:
[1] = Fetal weight after kisspeptin treatment (FIG. 6); type: in vivo
serum LH = assay: Serum LH in orchidectomized (castrated) male rats, icv injections; type: in vivo, rat; details: 1 nmol at 0, 60 and 120 min; significant at 240 min
Procedure: In addition, repeated icy injection of the peptide 234 was also conducted in orchidectomized (ORX) rats. The animals were subjected to bilateral ORX via the scrotal route, and after 1-wk after surgery were subjected to cannula implantation as described above. The test involved three intracerebral injections of the antagonist (1 nmol; at 0-, 60- and 120-min of the procedure) and blood sampling by jugular venipuncture in basal conditions (0-min) and 15-min after each icy injection. Additional blood samples were obtained at 180- and 240-min after central administration of peptide 234. For each time-point, 10-12 samples were taken per group.
Serum LH levels were measured in a volume of 50 μl using a double-antibody method and radioimmunoassay kits supplied by the NIH (Dr. AF Parlow, NIDDK). […] For each hormone, all samples were measured in the same assay. […]
Hormonal determinations were conducted in duplicate, with a minimal total number of 10 samples per group. When appropriate, in addition to individual time-point measurements, integrated LH secretory responses were calculated as the area under the curve (AUC), following the trapezoidal rule. […] Results were analyzed for statistically significant differences using Student t-test or ANOVA followed by Student-Newman-Keuls multiple range test (SigmaStat 2.0). […]

[2] = tested on: plasma LH, GH, prolactin and cortisol; assay: Central (third ventricle) infusion in OVX ewes: plasma LH, GH, prolactin, cortisol; type: in vivo, sheep
Description: Adult Corriedale ewes were housed under natural lighting and were bilaterally ovariectomized (OVX) at least 1 month before any experimental manipulations. Permanent indwelling third cerebral ventricular (3V) cannulae were implanted in a subsequent surgical procedure as previously described (Barker-Gibb et al., 1995, J. Endocrinol., 147:565-79). Approximately two weeks after 3V surgery, one external jugular vein was cannulated for blood sampling and animals housed in single pens; cannulae were kept patent with heparinized saline.
Ewes were assigned to two treatment groups (n=4 per group); kisspeptin antagonist (diluted in artificial cerebrospinal fluid, aCSF; 150 mM NaCl, 1.2 mM CaCl2, 1 mM MgCl2, 2.8 mM KCl) or control (aCSF only). The following day, infusion lines were connected to 3V cannulae and blood sampling commenced at 07.00 h. Samples were collected every 10 min. After 3 h of sampling, kisspeptin antagonist (or control) was infused into the 3V at a dose of 40 μg/h for 1 h, with an initial loading dose of 10 μg. Both kisspeptin antagonist and vehicle were infused at 200 μl/h for 1 h using Graseby® MS16A infusion pumps (Smiths Medical Australasia Pty. Ltd., Gold Coast, Qld, Australia). After infusion, 3V lines remained in place and blood sampling continued for a further 2 h (total of 6 h). Plasma was harvested immediately from samples, and frozen at −20 C until assayed.
Plasma LH concentrations were measured in duplicate, using the method of Lee et al. (1976, J. Reprod. Fertil., 46:1-6) with NIH-oLH-518 as standard. Assay results were calculated using the program of Burger et al. (1972, J. Lab. Clin. Med., 80:302-12). Assay sensitivity was 0.08 ng/ml and the intra-assay coefficient of variation was less than 10% over the range of 0.3-12.8 ng/ml. A pulse analysis of the LH data was performed based on the method described for GnRH (Clarke, 1993, Endocrinology, 133:1624-32).
All experimental procedures were conducted under a protocol approved by the Monash School of Biomedical Sciences Animal Ethics Committee. Adult Corriedale ewes were housed under natural lighting and were bilaterally ovariectomized (OVX) at least 1 month before any experimental manipulations. Permanent indwelling third cerebral ventricular (3V) cannulae were implanted in a subsequent surgical procedure as previously described (49). Approximately 2 weeks after 3V surgery, one external jugular vein was cannulated for blood sampling and animals housed in single pens; cannulae were kept patent with heparinized saline. Ewes were assigned to two treatment groups (4/group); peptide 234 (diluted in artificial cerebrospinal fluid, aCSF; 150 mM NaCl, 1.2 mM CaCl2, 1 mM MgCl2, 2.8 mM KCl) or control (aCSF only). The following day, infusion lines were connected to 3V cannulae and blood sampling commenced at 07.00 h. Samples were collected every 10 min. After 3 h of sampling, peptide 234 (or control) was infused into the 3V at a dose of 40 μg/h for 1 h, with an initial loading dose of 10 μg. Both peptide 234 and vehicle were infused at 200 μl/h using Graseby® MS16A infusion pumps (Smith Medical Australasia Pty. Ltd.). After infusion, 3V lines remained in place and blood sampling continued for a further 2 h (total of 6 h). Plasma was harvested immediately from samples, and frozen at −20 C until assayed.
Plasma LH concentrations were measured in duplicate, with NIH-oLH-518 as standard (49). Assay sensitivity was 0.1 ng/ml and the intra-assay coefficient of variation was less than 10% over the range of 0.3-12.8 ng/ml. Pulse analysis of the plasma LH data was as previously described (36). Plasma samples were assayed for GH in duplicate using the standard NIDDK-oGH-I-4 and NIDDK-anti-oGH-2 antiserum (50). The assay sensitivity was 1 ng/ml, the intra-assay CV was less than 10% between 4 and 51 ng/ml and the inter-assay CV was 20%.
Plasma prolactin concentrations were measured in duplicate using Sigma, Lot 114F-0558, NOL-7135 as standard (50). […]

LH receptors = LH receptors (Homo sapiens, UniProt P22888); assay: Binding to LH receptors (data not shown)
Sequence of LH receptors (P22888 27-699): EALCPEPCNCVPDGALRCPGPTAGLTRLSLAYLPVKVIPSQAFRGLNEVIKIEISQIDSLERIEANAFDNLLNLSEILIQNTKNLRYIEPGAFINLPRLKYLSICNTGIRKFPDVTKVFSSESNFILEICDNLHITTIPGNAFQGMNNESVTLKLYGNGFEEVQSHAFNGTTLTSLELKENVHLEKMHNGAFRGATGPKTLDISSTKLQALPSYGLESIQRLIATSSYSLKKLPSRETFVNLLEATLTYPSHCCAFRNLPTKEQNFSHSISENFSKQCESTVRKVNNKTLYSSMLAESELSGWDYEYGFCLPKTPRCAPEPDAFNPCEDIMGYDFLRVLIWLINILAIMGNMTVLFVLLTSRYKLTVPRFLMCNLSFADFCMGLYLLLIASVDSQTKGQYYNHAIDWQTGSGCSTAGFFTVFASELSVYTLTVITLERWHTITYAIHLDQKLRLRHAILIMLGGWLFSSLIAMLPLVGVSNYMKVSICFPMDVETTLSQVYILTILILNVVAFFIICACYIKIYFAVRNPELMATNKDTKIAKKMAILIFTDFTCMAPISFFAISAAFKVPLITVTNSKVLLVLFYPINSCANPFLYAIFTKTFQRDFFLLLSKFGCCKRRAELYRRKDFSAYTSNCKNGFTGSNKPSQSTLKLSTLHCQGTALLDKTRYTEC

[3] = before, during or after infusion

Row | SMILES | fetal weight [1] | serum LH levels in castrated males (serum LH) | Mean GH ([2]; After Infusion) | Mean LH ([2]; After Infusion) | LH pulse amplitude ([2]; After Infusion (240-360 min), listed as Peptide-234) | LH pulse amplitude ([2]; After Infusion (240-360 min), listed as peptide 234) | Mean GH ([2]; Before Infusion) | Mean LH ([2]; Before Infusion) | LH pulse amplitude ([2]; Before Infusion (0-180 min)) | Mean LH ([2]; During Infusion) | LH pulse amplitude ([2]; During Infusion (180-240 min), 40 μg/h, loading dose 10 μg) | Mean GH ([2]; During Infusion, listed as Peptide-234) | Mean GH ([2]; During Infusion, listed as peptide 234) | number of LH secretory pulses ([2]; after ventricular administration) | cortisol concentrations [2, 3] | prolactin concentrations [2, 3] | binding to LH receptors (LH receptors)
1 | CC(C)C[C@H](NC(=O)CNC(=O)[C@H](Cc1ccccc1)NC(=O)[C@H](CO)NC(=O)[C@H](CC(N)=O)NC(=O)[C@H](Cc1c[nH]c2ccccc12)NC(=O)[C@H](CC(N)=O)NC(=O)[C@@H](N)Cc1ccc(O)cc1)C(=O)N[C@@H](CCCNC(=N)N)C(=O)N[C@@H](Cc1ccccc1)C(N)=O [Kiss, reference compound] | decreased |  |  |  |  |  |  |  |  |  |  |  |  |  |  |  | 
2 | CC(=O)N[C@H](C)C(=O)N[C@@H](CC(N)=O)C(=O)N[C@@H](Cc1c[nH]c2ccccc12)C(=O)N[C@@H](CC(N)=O)C(=O)NCC(=O)N[C@@H](Cc1ccccc1)C(=O)NCC(=O)N[C@H](Cc1c[nH]c2ccccc12)C(=O)N[C@@H](CCCNC(=N)N)C(=O)N[C@@H](Cc1ccccc1)C(N)=O [Peptide 234] (Ac-[dA]NWNGFG[dW]RF-NH2) |  | inhibited; also recorded: tended to reduce; also recorded: blocked the increase in LH | 9.11 ± 1.44 ng/mL | significant reduction; also recorded: reduced | 0.68 ± 0.05 ng/mL | significant reduction; also recorded: diminished amplitude; also recorded: markedly reduced | 5.11 ± 1.48 ng/mL | 2.73 ± 0.43 ng/mL | 1.63 ± 0.28 ng/mL | 2.89 ± 0.55 ng/mL | 1.82 ± 0.52 ng/mL | 14.07 ± 2.78 ng/mL | significant increase; also recorded: increased; also recorded: appeared to increase | markedly reduced | no effect | no effect | did not bind
